We go through three molecules from article PMC11875561, “Molecular Insights into the Heme‐Binding Potential of Plant NCR247‐Derived Peptides” (Chembiochem, 2025).

In general, Kd refers to the free concentration of one partner at which half of the binding sites on the other are occupied at equilibrium, for simple one-to-one binding.

Bridge positions count the residues as written; N and C are the ends. Ends that are not written are not given here.

For experiment [1], the target named is MBP-NCR247_1-4,2-3. The experiment can be described thus: UV/vis spectroscopic titration of preformed MBP (10 uM) plus NCR247_1-4,2-3 (10 uM) with heme (4-45 uM), 30 min incubation, evaluated near 420 nm with a 1:1 model. The class given is binding. The note with it: read-out: KD value, stoichiometry 1:1 (MBP-NCR247_1-4,2-3:heme). The protocol:
(§1) Peroxidase-like activity of the heme-peptide complexes.
(§2) 10 μl of the heme-peptide complex (final concentration:
(§3) (100%) and evaluated as the average of triplicate measurements.
(§4) Subsequently, absorbance spectra were recorded
(§5) Similar to the aforementioned approach,
(§6) NCR247 was added and measured spectroscopically.
(§7) Resonance Raman spectroscopy of the heme-peptide complexes.
(§8) -60°C (ANDOR, Ireland, 1024x127 pixels) used for detection.
(§9) were combined in an equimolar ratio.
(§10) The raw Raman spectra were
(§11) visualised using the graphing software OriginPro 2016G Sr2.
(§12) clipping (SNIP) algorithm, and vector normalisation.
(§13) Circular Dichroism (CD) spectroscopy with NCR247-derived peptides.
(§14) All the peptide solutions were prepared
(§15) prediction tool. […] The structure

The next experiment addresses T1, NCR247_1-2,3-4.
T1 construct: synthetic 24mer, oxidized isomer, disulfides Cys4-Cys10 and Cys15-Cys21
Kind of experiment: UV/vis difference-spectroscopic titration of peptide (10 or 20 uM) with heme (0.4-40 uM) in 100 mM HEPES pH 7.0 after 30 min incubation at room temperature, one binding site. The protocol: (§16) Heme binding to the NCR247 parent peptide and its analogues was assessed using UV/vis spectroscopy (Table S2) following an earlier established experimental set‐up,[27, 30, 31, 32] with heme (0.4 to 40 μM) titrated to NCR247 peptide (20 μM) in 100 mM HEPES buffer (pH 7.0). […] The KD value for this peptide was first determined by adjusting the established protocol[30] to 1 min incubation time, while at an incubation time of 30 min concomitant oxidation of the cysteine residues has taken place as indicated by the fact that a stable complex was formed only in the first minutes and then a change in the spectrum occurred which is due to disulfide bond formation changing the heme‐binding behaviour of the peptide.
(§17) Figure 4 Heme‐binding analysis of NCR247 peptides. UV/vis spectroscopic analysis upon addition of increasing concentrations of heme (0.4–40 μM) to NCR247 oxidized isomers (on the left), in silico docking analysis (in the middle) showing residues involved in heme binding and rRaman spectra of heme‐peptide (1 : 1) complex (on the right). a, NCR247_1–3,2–4. b, NCR247_1–2,3–4. c, NCR247_reduced form, with free Cys residues. The complex formation was analysed after incubating it for 30 min at room temperature. The change in the spectral behaviour when measured after 1 min and 30 min of complex incubation is noteworthy. The intensity of the bands at λ =364 nm, indicate a change in the peptide and can be attributed to concomitant oxidation of free Cys residues in aqueous buffer systems, making the Soret band at λ =428 nm more prominent, similar to the one observed in case of the oxidized isomers. d, Peroxidase‐like activity assay of heme‐NCR247 complex measured using an oxidative conversion of TMB substrate at 652 nm. […]
(§18) Under oxidative reaction conditions, the cysteines were deprotected and folded by formation of the disulfide bridges between the cysteines according to protocols reported earlier.[4,5] […]

Another experiment addresses T2, NCR247_1-4,2-3.
T2 construct: synthetic 24mer, oxidized isomer, disulfides Cys4-Cys21 and Cys10-Cys15
The description is as above. The protocol:
as §16, §17, §18

A further experiment addresses T3, NCR247_1-3,2-4.
T3 construct: synthetic 24mer, oxidized isomer, disulfides Cys4-Cys15 and Cys10-Cys21
The experiment is described as above. The method, then: as §16, §17, §18

The target in experiment [2] is MBP-NCR247_1-4,2-3. Kind of experiment: UV/vis spectroscopic titration of preformed MBP (10 uM) plus NCR247_1-4,2-3 (10 uM) with heme (4-45 uM), 30 min incubation, evaluated with a model of two heme molecules per complex. To be noted: read-out: KD value, two heme molecules binding to the MBP-NCR247_1-4,2-3 complex. The protocol:
as §1, §2, §3, §4, §5, §6, §7, §8, §9, §10, §11, §12, §13, §14, §15

Experiment [3] deals with NCR247_reduced. Kind of experiment: UV/vis difference-spectroscopic titration of peptide (10 or 20 uM) with heme (0.4-40 uM) in 100 mM HEPES pH 7.0 after 30 min incubation at room temperature, one binding site. The protocol: Heme binding to the NCR247 parent peptide and its analogues was assessed using UV/vis spectroscopy (Table S2) following an earlier established experimental set‐up,[27, 30, 31, 32] with heme (0.4 to 40 μM) titrated to NCR247 peptide (20 μM) in 100 mM HEPES buffer (pH 7.0). […] time, while at an incubation time of 30 min concomitant oxidation of the cysteine residues has taken place as indicated by the fact that a stable complex was formed only in the first minutes and then a change in the spectrum occurred which is due to disulfide bond formation changing the heme‐binding behaviour of the peptide.
Figure 4 Heme‐binding analysis of NCR247 peptides. […] The complex formation was analysed after incubating it for 30 min at room temperature. The change in the spectral behaviour when measured after 1 min and 30 min of complex incubation is noteworthy. The intensity of the bands at λ =364 nm, indicate a change in the peptide and can be attributed to concomitant oxidation of free Cys residues in aqueous buffer systems, making the Soret band at λ =428 nm more prominent, similar to the one observed in case of the oxidized isomers. d, Peroxidase‐like activity assay of heme‐NCR247 complex measured using an oxidative conversion of TMB substrate at 652 nm. […]

The target of experiment [4] is NCR247_reduced. Kind of experiment: UV/vis difference-spectroscopic titration of peptide (10 or 20 uM) with heme (0.4-40 uM) in 100 mM HEPES pH 7.0 after 1 min incubation, evaluated near 428 nm for one binding site. The protocol:
as §16, with “peptide. […]” for “peptide.”
(§19) Heme binding to the NCR247-derived peptides (Fig. 1, Table S1) was investigated by UV/vis spectroscopy, as described earlier.[2,3,7– 9] […] Absorbance spectra were recorded on a Multiskan GO spectrophotometer (ThermoScientific, Dreieich, Germany) in the range of 300 - 600 nm. Difference spectra were generated by subtracting the spectra of heme and peptide alone from the absorbance spectrum of the hemin-peptide complex. Dissociation constants (KD) were determined by using GraphPad Prism 10.0.2 and the earlier established equation from Pîrnău and Bogdan, as described elsewhere.[7,10]

The target in another experiment is T4, MBP (Escherichia coli, UniProt P0AEX9).
T4 construct: gene malE; commercial (Rockland Inc.)
The experiment can be described thus: UV/vis spectroscopic titration of MBP (10 uM) with heme (4-40 uM) in HEPES pH 7.0 after 30 min incubation, 1:1 model, Soret band near 400 nm. To be noted: read-out: KD value, stoichiometry 1:1 (MBP:heme). The experiment is classed as binding.

On the set-up of experiment [5]: method as in earlier work. The note with it: ref 11 (Sankari et al.); cited from earlier work.
Experiment [6] is described as follows: UV/vis spectroscopy heme binding to NCR247-derived peptides. To be noted: 30 min incubation; Soret λ ~420 nm (oxidized isomers) or ~428 nm (reduced); n=1; peptide 20 μM, heme 0.4-40 μM, 100 mM HEPES pH 7.0. The method, then:
as §16, with “peptide. […]” for “peptide.”
as §19

A short description of experiment [7]: UV/vis titration of MBP in complex with NCR247_1–4,2–3 with heme. The note with it: peptide versus MBP.
Experimental: UV/vis titration experiments of peptides and proteins with heme.
Maltose-binding protein (Rockland Inc. Pennsylvania, USA) (10 µM) was preincubated with heme in different concentrations (4 - 40
µM) for 30 min in HEPES buffer (pH 7.0) prior to the UV/vis spectroscopic analysis. Subsequently, absorbance spectra were recorded
and analysed analogously to the heme-binding studies with the peptides described above.[2] Similar to the aforementioned approach,
NCR247 was added and measured spectroscopically. In addition to this, 10 µM NCR247_1-4,2-3 was incubated with increasing

Consider `C=CC1=C(C)c2cc3[nH]c(cc4nc(cc5[nH]c(cc1n2)c(C)c5CCC(=O)O)C(CCC(=O)O)=C4C)c(C)c3C=C.[Fe+3]` [heme, Fe(III) protoporphyrin IX (Fe(III)PPIX, hemin)], for which the Kd on MBP-NCR247_1-4,2-3 [1] came out at 14900 nM; on NCR247_1-2,3-4, 2980 nM; at NCR247_1-4,2-3 it was 2800 nM; at NCR247_1-3,2-4, 2090 nM; at MBP-NCR247_1-4,2-3 [2] it was 7600 nM; on NCR247_reduced [3], 2270 nM. Further, the Kd on NCR247_reduced [4] was 1.44 µM; on MBP it was 7200 nM.
In the case of “NSR247: RNGSIVDPRSPYQQSRRPLYSRRR, mutant with all cysteine residues replaced with serine, negative control”, the heme-binding affinity entry in experiment [5] is listed as “μM range”. The KD heme binding entry in experiment [6] was “n.b. and completely lost and absence of heme binding”.
For “NCR247_1–4,2–3: RNGCIVDPRCPYQQCRRPLYCRRR, isomer with bridges Cys4‐Cys21 and Cys10‐Cys15 (disulfide 10-15, 4-21)”, in experiment [7], the “binding affinity of the peptide compared to the protein (MBP)” value is “two‐fold higher”.
